Columns and labels:
NOD mice [1] = details: cited from earlier work
CXCR4 = target: T1, CXCR4 (Homo sapiens, UniProt P61073); details: induction of internalization after binding; Liu et al., 2004; cited from earlier work
T1 construct: endogenous in cells; host or cells: human peripheral mononuclear cells (PBMCs)

NOD mice [2] = assay: Diabetes incidence monitored by urine glucose level; assay type: in vivo, mouse
Text: NOD mice were obtained from Taconic Farms. […] BALB/c mice were purchased from Jackson Laboratory. EA16NOD mice were obtained from Drs. Diane Mathis and Christopher Benoist. […] All mice were kept under specific pathogen free facilities.
To test whether continuous AMD3100 treatment can inhibit the development of diabetes, prediabetic NOD mice (15 weeks of age) were given AMD3100 daily for 14 weeks. PBS-treated NOD mice started to show evidence of diabetes at 16 weeks of age, and by 29 weeks of age, all mice developed diabetes (FIG. 8D).

[3] = test system: sublethally irradiated male NOD mice; details: Aboumrad et al., 2007; cited from earlier work
prediabetic NOD mice [4] = test system: prediabetic NOD mice
Procedure: (§1) NOD mice were obtained from Taconic Farms. Female NOD mice were used in all the studies and monitored for diabetes by checking urine glucose levels at least two times per week, starting around 12 weeks of age. Mice were considered diabetic when urinary glucose level reached 500 mg/dl, as measured with Diastix (Bayer Diagnostics). […] BALB/c mice were purchased from Jackson Laboratory. EA16NOD mice were obtained from Drs. Diane Mathis and Christopher Benoist. Cxcr4^fif Lck-Cre mice and littermate Cxcr4^−if Lck-Cre were on the mixed 129/C57BL/6 background and were generated by breeding Cxcr4^+if Lck-Cre mice. All mice were kept under specific pathogen free facilities. For AMD3100 treatment, prediabetic NOD mice were given AMD3100 (5 mg/kg) subcutaneously daily for the indicated lengths of time. For analysis of T cell distribution, mice were sacrificed at 2 hours after the last AMD3100 injection.
Single-cell suspensions were prepared from the spleen, lymph nodes (e.g., superficial cervical, brachial, axillary, inguinal, mesenteric, and pancreas-draining lymph nodes), and bone marrow (e.g., obtained by flushing two femurs and two tibias with cold RPMI 1640 medium containing 5% fetal calf serum [FCS]). All staining antibodies were purchased from BDbioscience, except anti-Foxp3, lineage markers (Lin), and c-Kit and Sea-1, which were from E-bioscience, Stem Cell Technologies, and Biolegend, respectively. Cells were stained in the presence of 2.5 μg/ml anti-FcR antibody in PBS containing 0.1% BSA and 0.1% NaN3 and analyzed on a FACScaliber or a LSR II or a FACSAria, collecting 10,000 to 1,000,000 live cells per sample. Analyses were carried out with Flowjo software. For analysis of LSK cells, 10% of total cells with low level of lineage marker expression were gated for further analysis of Sca-1 versus c-Kit expression profiles. Intracellular staining of Foxp3 and Ki67 was performed according to the manufacturer's instruction.
AMD3100 is a small molecule antagonist of CXCR4 (De Clercq, 2003, supra; incorporated herein by reference). […] Thus, prediabetic NOD mice were given AMD3100 (5 mg/kg) daily for 8 days, and the distribution and phenotype of T cells in their bone marrow were assayed.

prediabetic NOD mice [5] = details: daily for 8 days (FIGS. 8A and 8B)
Procedure: as §1

[6] = treatment for 8 days (FIG. 10G)
[7] = treatment for 8 days (FIG. 10H)

T1 sequence (P61073 whole entry): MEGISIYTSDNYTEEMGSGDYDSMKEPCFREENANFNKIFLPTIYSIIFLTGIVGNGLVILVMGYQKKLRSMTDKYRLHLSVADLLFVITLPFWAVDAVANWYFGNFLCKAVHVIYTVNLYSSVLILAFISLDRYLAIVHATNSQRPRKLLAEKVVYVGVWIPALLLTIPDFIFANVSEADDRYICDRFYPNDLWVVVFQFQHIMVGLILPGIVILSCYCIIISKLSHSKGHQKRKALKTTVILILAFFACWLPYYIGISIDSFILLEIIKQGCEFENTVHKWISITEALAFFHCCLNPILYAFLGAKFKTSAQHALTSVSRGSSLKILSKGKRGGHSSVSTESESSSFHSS

G-CSF: granulocyte colony-stimulating factor, a known suppressor of CXCL12 expression
insulitis and diabetes (NOD mice [1]; NOD mice, literature): reduced | onset of type I diabetes (NOD mice [1]; NOD mice, literature): significantly delays

O=C1c2c(O)cc(O)cc2O[C@H](c2cc(O)c(O)c(O)c2)[C@H]1O [ampelopsin]
CXCR4 on the surface of human peripheral mononuclear cells (PBMCs) (CXCR4): decrease

Cl.Cl.Cl.Cl.Cl.Cl.Cl.Cl.O.O.c1cc(CN2CCCNCCNCCCNCC2)ccc1CN1CCCNCCNCCCNCC1 [AMD3100, 1,1′-[1,4-phenylenebis(methylene)]-bis-1,4,8,11-tetraazacyclotetradecane octahydrochloride dihydrate]
time after termination of treatment at which mice began to develop diabetes (NOD mice [2]; after three weeks of daily treatment): two weeks | diabetes incidence after termination of treatment (NOD mice [2]; by 26 weeks of age, three weeks of daily treatment, same level as PBS-treated mice): 70% | mice that developed diabetes during continuous treatment (NOD mice [2]; daily for 14 weeks from 15 weeks of age, up to 29 weeks of age (FIG. 8D)): none | mice that developed diabetes during treatment (NOD mice [2]; daily for three weeks from 15-16 weeks of age, period between 17 and 20 weeks of age (FIG. 8C)): none | diabetes development in the transfer model [3]: promotes | proportion of CD4 T cells with the naïve phenotype (CD45RB^hi CD44^lo) in bone marrow (prediabetic NOD mice [4]; 5 mg/kg daily for 8 days (FIG. 5B)): preferentially reduced | proportion of both CD4 and CD8 T cells in the bone marrow (prediabetic NOD mice [4]; 5 mg/kg daily for 8 days, compared to PBS (FIG. 5A)): significantly reduced | percentage of HSC in the bone marrow (prediabetic NOD mice [4]; 8 days, compared to PBS-treated NOD mice, p=0.06 (FIG. 10D)): reduced | percentage of T cells that proliferated in the spleen and pancreas-draining lymph nodes (prediabetic NOD mice [4]; AMD3100 treatment of NOD mice): did not significantly affect | distribution of NKT cells, dendritic cells, or B cells (prediabetic NOD mice [4]; NOD mice following AMD3100 treatment (FIG. 6)): nor any change | percentages (mean±SE) of CD45RB^hi CD44^lo naïve T cells among TCR+CD4+ cells (prediabetic NOD mice [4]; bone marrow, prediabetic NOD mice 15-16 weeks of age, daily for 8 days, n=4, p<0.01 vs PBS): 24.8±3.2% | NKT cell distribution in various organs (prediabetic NOD mice [4]; prediabetic NOD mice, 8 days (FIG. 6)): does not affect | number of HSCs (Lin-Sca1+c-Kit+) in the bone marrow (prediabetic NOD mice [4]; treatment for 8 days (FIG. 7C)): significantly reduced | percentage of Foxp3+CD4+ Treg cells in the bone marrow (prediabetic NOD mice [4]; [6]): increased | percentages of Tregs in the pancreas-draining lymph node (PDLN) (prediabetic NOD mice [4]; [6]): increased significantly | percentages of Tregs in the spleen (prediabetic NOD mice [4]; [6]): increased significantly | number of Tregs in the spleen (prediabetic NOD mice [4]; [7]): increased significantly | total number of Tregs in the bone marrow (prediabetic NOD mice [4]; [7]): decreased | lymphocyte infiltration into the islets (insulitis) (prediabetic NOD mice [5]; prediabetic NOD mice 15 weeks of age): significantly reduced | peri-insulitis (prediabetic NOD mice [5]; prediabetic NOD mice): without affecting

CXCL12: chemokine (C-X-C motif) ligand 12, administered systemically (Yano et al., 2007)
diabetes on systemic administration (NOD mice [1]; Yano et al., 2007): ameliorates

Source: patent publication US20100298214A1, “TREATMENT OF AUTOIMMUNE DISEASE” (MASSACHUSETTS INSTITUTE OF TECHNOLOGY, priority 2007, published 2010)
